In patent publication US20100041612A1, “Fragments of the Glucagon-Like Peptide-1 and Uses Thereof” (priority 2005, published 2010):
Square brackets hold non-standard residues; d marks the D form. Peptide text beside a SMILES is read from it. Bip = N[C@@H](Cc1ccc(-c2ccccc2)cc1)C(=O)O

What was measured:
[1] = biological target: wild-type human GLP-1 receptor (Homo sapiens, UniProt P43220); test: Peptide induced cAMP production (radioimmunoassay) in COS-7 cells transfected with wild-type GLP-1 receptor
Method: COS-7 cells were transiently transfected with cDNA encoding the wild-type human GLP-1 receptor. Peptide induced cAMP production was measured by radioimmunoassay.

[2] = system: hyperactive human GLP-1 receptor variant; test: Peptide induced cAMP production (radioimmunoassay) in COS-7 cells transfected with hyperactive GLP-1 receptor variant; assay type: cell-based; settings: for EC50: COS-7 cells, hyperactive human GLP-1 receptor variant
From the text: The same peptides were used as described above, with the underivatized GLP-1 (7-20) amide represented in FIG. 1B with closed squares (“−bpa”) and the GLP-1 (7-20) carboxy-terminal tethered with a small molecule, biphenylalanine, represented by open squares (“+bpa”).

[3] = system: Zucker diabetic fatty (ZDF) rats; test: Preclinical trial protocol in Zucker diabetic fatty (ZDF) rats: blood glucose and islet cell mass; assay type: in vivo, rat; settings: versus saline; for blood glucose levels: 1 μg/kg/day to 100 mg/kg/day; for islet cell mass in pancreases: histology
Method: In this example, qualified animal models for diabetes are employed to examine the dose ranges of GLP-1 (7-20).
Treatment with GLP-1 (7-20) Animal Model. Zucker diabetic fatty (ZDF) rats are a well characterized type 2 diabetes animal model. (Suh Y H, et al. J Mol. Endocrinol. 2005 April; 34(2):299-315.)
Doses of GLP-1 (7-20) range from 1 μg/kg/day to 100 mg/kg/day.
Treatment. Cohorts are treated in 2 arms with 2-4 dose ranges of GLP-1 (7-20) amide and a placebo, at a compensated dose for animal size, metabolism and circulation. Arm 1: saline, Arm 2: GLP-1 (7-20) amide.
Study Assessment. Blood glucose levels are measured every week with a One Touch II glucose meter (Lifescan). Blood insulin levels are also measured. Rats are considered diabetic after 2 consecutive blood glucose measurements over 300 mg/dl. For histological analysis, pancreases are snap-frozen. Multiple 5-μm sections are stained with hematoxylin and eosin and scored blindly for islet cell mass as known in the art. […]
Animal Model. Zucker diabetic fatty (ZDF) rats are a well characterized type 2 diabetes animal model. (Suh Y H, et al. J Mol Endocrinol. 2005 April; 34(2):299-315.) […]
Treatment. Cohorts are treated in 6 arms with 2-4 dose ranges of each drug and a placebo, at a compensated dose for animal size, metabolism and circulation. Arm 1: saline, Arm 2: GLP-1 (7-20)−bpa; Arm 3: GLP-1 (7-20)+bpa; Arm 4: GLP-1 (7-20)−bpa plus pravastatin; Arm 5: GLP-1 (7-20)+bpa plus pravastatin; Arm 6: GLP-1 (7-20)−bpa plus GLP-1 (7-20)+bpa plus pravastatin.
Study Assessment. Blood glucose levels are measured every week with a One Touch II glucose meter (Lifescan). Blood insulin levels are also measured. Rats are considered diabetic after 2 consecutive measurements over 300 mg/dl. For histological analysis, pancreases are snap-frozen. Multiple 5-μm sections are stained with hematoxylin and eosin and scored blindly for islet cell mass as known in the art.

wild-type human GLP-1 receptor, sequence (P43220 24-463): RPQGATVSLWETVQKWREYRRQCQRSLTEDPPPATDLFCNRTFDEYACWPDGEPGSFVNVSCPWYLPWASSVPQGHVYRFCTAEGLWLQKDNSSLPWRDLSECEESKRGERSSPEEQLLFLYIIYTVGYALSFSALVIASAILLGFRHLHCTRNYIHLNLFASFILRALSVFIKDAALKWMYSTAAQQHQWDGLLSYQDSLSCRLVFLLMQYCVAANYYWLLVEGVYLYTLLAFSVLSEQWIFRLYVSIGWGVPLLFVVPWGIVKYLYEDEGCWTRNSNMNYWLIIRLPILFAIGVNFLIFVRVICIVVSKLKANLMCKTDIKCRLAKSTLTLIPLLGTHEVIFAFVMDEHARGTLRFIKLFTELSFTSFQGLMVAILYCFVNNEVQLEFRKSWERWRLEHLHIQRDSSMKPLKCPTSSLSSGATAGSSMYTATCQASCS

Row | Compound | potency increase by carboxy-terminal tethering of biphenylalanine ([1]; versus underivatized GLP-1 (7-20) amide, wild-type receptor) | EC50 [2] | higher potency than GLP-1 (7-20) amide -bpa at the hyperactive receptor ([2]; hyperactive receptor, +bpa versus -bpa) | blood glucose levels [3] | islet cell mass in pancreases [3] | affinity for the GLP-1 receptor compared with full length GLP-1 ([1]; statement referring to Example 1) | potency increase compared to the function of this peptide at the wild type receptor ([2]; hyperactive versus wild type receptor)
1 | CC(C)C[C@H](NC(=O)[C@H](Cc1ccc(O)cc1)NC(=O)[C@H](CO)NC(=O)[C@H](CO)NC(=O)[C@@H](NC(=O)[C@H](CC(=O)O)NC(=O)[C@H](CO)NC(=O)[C@@H](NC(=O)[C@H](Cc1ccccc1)NC(=O)[C@@H](NC(=O)CNC(=O)[C@H](CCC(=O)O)NC(=O)[C@H](C)NC(=O)[C@@H](N)Cc1c[nH]cn1)[C@@H](C)O)[C@@H](C)O)C(C)C)C(=O)N[C@@H](Cc1ccc(-c2ccccc2)cc1)C(N)=O [GLP-1 (7-20)+bpa] (H-HAEGTFTSDVSSYL[Bip]-NH2; N-terminus and C-terminus assumed) | 22 fold | 2 µM | 10 fold | pronounced reduction | increased | – | –
2 | CC(C)C[C@H](NC(=O)[C@H](Cc1ccc(O)cc1)NC(=O)[C@H](CO)NC(=O)[C@H](CO)NC(=O)[C@@H](NC(=O)[C@H](CC(=O)O)NC(=O)[C@H](CO)NC(=O)[C@@H](NC(=O)[C@H](Cc1ccccc1)NC(=O)[C@@H](NC(=O)CNC(=O)[C@H](CCC(=O)O)NC(=O)[C@H](C)NC(=O)[C@@H](N)Cc1c[nH]cn1)[C@@H](C)O)[C@@H](C)O)C(C)C)C(N)=O [GLP-1 (7-20) amide] (H-HAEGTFTSDVSSYL-NH2; N-terminus assumed) | – | 24 µM | – | pronounced reduction | increased | lower affinity than full length GLP-1 | 10 fold
